According to patent US5051417A, “Indolythiadiazines for treating heart failure” (Les Laboratoires Beecham S.A., priority 1988, dated 1991):

Columns and labels:
[1] = test system: canine cardiac myofibrillar Ca++-dependent Mg++-ATPase; experiment: Measurement of myofibrillar Ca++-dependent Mg++-ATPase activity on canine cardiac myofibrils; format: biochemical; settings: pH 7.0, 21° C.; for max (percent change of maximal ATPase activity): pCa=5.47
Description: 1. Measurement of myofibrillar Ca++-dependent Mq++-ATPase activity The effect on myofibrillar Ca++sensitivity and on maximal activity of myofibrillar Ca++-dependent Mg++-ATPase was determined on canine cardiac myofibrils. (a) Contractile protein preparation Cardiac myofibrils free of membrane contaminants were prepared from left ventricular tissue of dog hearts using a modification of the method described by SOLARO et al, Biochem. Biophys. Acta, 245, 259-262, (1971). Before centrifugation, the heart homogenate was filtered through gauze. After Triton X-100 treatments, the myofibrillar fraction was washed once by resuspension and centrifugation in 10 volumes of 1 mM EGTA, […], 30 mM imidazole, 2 mM MgCl2, pH 7.0. The pellet was then washed three times in 10 volumes of the same buffer without EGTA. Before the last centrifugation, the suspension of myofibrils was filtered through a stainless steel sieve with 0.25 mm meshes. Myofibrils were kept in pellet overnight. Before use, the pellet was suspended in a small amount of buffer, the protein concentration was determined by the method of BRADFORD M., Anal. Biochem., 1976, 72, 248 and adjusted in order to have a concentration between 6 and 7 mg/ml. (b) Myofibrillar ATPase activity Ca++-dependent myfibrillar ATPase activity was determined at 21° C., pH 7.0, by measuring the rate of release of inorganic phosphate. All assays were performed within 24hrs. of final purification, using the method described by SOLARO and […]., 51. 290-4,(1982). Reaction mixtures (4 ml) containing 0.6-0.7 mg/ml myofibrillar protein, 80mM KCl, 20 mM imidazole, 3 mM MgCl2, 1 mM EGTA, the desired amount of CaCl2, and the indicated concentration of drug or appropriate vehicle were preincubated for 6 min. prior to assay. The amount of CaCl2 was varied between 0 and 0.9 mM and the pCa (-log free Ca++) computed using 2.514×10^6 M^-1 as the apparent affinity of Ca++for EGTA at pH 7.0. Reactions were initiated by the addition of Na2 ATP to final concentration of 2 mM. After an incubation period of 12 min., reactions were quenched by the addition of an equal volume of ice-cold 10% trichloroacetic acid. The protein was pelleted by centrifugation (2000 g, 15 min.) and Pi was assayed in the supernatant fraction using a modification of the method described by LANZETTA et al, Anal. Biochem., 100, 95-97, (1979). The following solutions were prepared: (1) 3.7% ammonium heptamolybdate in 0.12 N H2 SO4 (2) 0.074% malachite green oxalate in 1% polyvinylic alcohol. The colour reagent was prepared by mixing an equal volume of solution (1) and (2) 15 min. before the assay. For the assay, 1,700 μl of 1% H2 SO4 and 1 ml of colour reagent were added to 100 μl of sample. Colour development occurred at room temperature for 30 min. and was quenched by the addition of 200 μl of 1M tri-potassium citrate. The absorbance was measured at 620 millimicrons. The effect of each compound, tested at the indicated concentration, on the relation between pCa and percent activation was determined taking 100% for the maximum ATPase activity obrained with vehicle alone. The effect on Ca++sensitivity was quantified by measuring the shift of the pCa giving 50% of the maximal control ATPase activity. The effect on maximal ATPase activity was expressed as the percent change of ATPase activity for pCa=5.47. Mean effects on myofibrillar ATPase activity were obtained from 1 to 5 preparations, (compounds tested at 2×10^-4 M).

canine cardiac PDE, CGI = target: T1, canine cardiac PDE, CGI (Canis lupus familiaris, UniProt A0A8I3NYE0); experiment: Canine cardiac PDE inhibition, CGI; format: biochemical; settings: n in table
T1 construct: CANINE CARDIAC PDE; from tissue; host or cells: dog heart
T1 sequence (A0A8I3NYE0 1-1135): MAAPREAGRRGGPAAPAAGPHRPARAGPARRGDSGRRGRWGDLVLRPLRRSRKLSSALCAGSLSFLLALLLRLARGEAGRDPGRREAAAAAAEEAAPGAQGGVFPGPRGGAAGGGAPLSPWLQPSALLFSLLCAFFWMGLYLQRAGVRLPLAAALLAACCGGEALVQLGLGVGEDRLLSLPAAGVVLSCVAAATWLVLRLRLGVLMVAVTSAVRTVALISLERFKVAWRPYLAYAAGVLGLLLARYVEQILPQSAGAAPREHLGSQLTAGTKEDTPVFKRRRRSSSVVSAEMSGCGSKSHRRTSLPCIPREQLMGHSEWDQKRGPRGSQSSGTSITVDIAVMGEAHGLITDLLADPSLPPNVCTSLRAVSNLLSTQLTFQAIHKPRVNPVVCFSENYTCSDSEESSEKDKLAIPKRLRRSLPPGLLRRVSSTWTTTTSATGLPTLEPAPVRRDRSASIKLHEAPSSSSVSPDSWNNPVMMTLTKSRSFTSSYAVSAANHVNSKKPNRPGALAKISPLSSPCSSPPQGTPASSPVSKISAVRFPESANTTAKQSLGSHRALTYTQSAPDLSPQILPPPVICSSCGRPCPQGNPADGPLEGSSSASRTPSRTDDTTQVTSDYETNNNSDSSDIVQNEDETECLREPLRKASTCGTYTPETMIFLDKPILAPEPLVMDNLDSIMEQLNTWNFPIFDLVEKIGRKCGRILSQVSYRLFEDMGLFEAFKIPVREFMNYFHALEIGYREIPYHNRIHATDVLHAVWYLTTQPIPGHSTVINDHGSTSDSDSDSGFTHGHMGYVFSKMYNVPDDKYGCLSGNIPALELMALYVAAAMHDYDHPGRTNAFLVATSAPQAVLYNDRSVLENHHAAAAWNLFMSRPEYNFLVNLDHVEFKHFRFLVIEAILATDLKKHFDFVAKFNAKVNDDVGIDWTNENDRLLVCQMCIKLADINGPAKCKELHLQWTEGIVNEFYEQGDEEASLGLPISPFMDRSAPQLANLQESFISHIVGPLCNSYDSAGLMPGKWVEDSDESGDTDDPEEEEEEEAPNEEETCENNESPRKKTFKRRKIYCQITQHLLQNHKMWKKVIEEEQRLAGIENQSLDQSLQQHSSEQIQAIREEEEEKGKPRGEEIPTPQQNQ

canine cardiac PDE, CAM = experiment: Canine cardiac PDE inhibition, CAM; format: biochemical; settings: n in table
anaesthetised dog = experiment: Cardiotonic activity in the dog (haemodynamics); format: in vivo, dog (male Beagle); settings: i.v.
[2] = Stability in presence of air; format: physicochemical; settings: free base
Description: However, the compounds can usually be stabilised by converting them to a salt form.
1 g (2.8mmol) 1,3-Dihydro-5-(3,6-dihydro-6-methyl-2-oxo-2H -1,3,4-thiadiazin-5-yl)-3-phenylimino-2H-indol-2-one (E6) and 1.87 g (28mmol) powdered zinc in 20 ml glacial acetic acid were refluxed for 10 minutes. The excess of zinc was removed by filtration and washed with acetic acid. 100 ml water were added to the filtrate and the precipitate was filtered, washed with water until neutral, and dried under vacuum. […] The crystals of the free base were suspended in a 1/5 mixture of methanol/ethyl ether (30 ml) and about 5 ml of a saturated solution of HCl gas in ethyl ether were added. After 1 hour of stirring, the white precipitate was filtered off, washed with ether and dried.

SMILES | max (percent change of maximal ATPase activity) ([1]; 10 μM) | pCa (shift of the pCa giving 50% of the maximal control ATPase activity; Ca++ sensitivity) ([1]; 10 μM) | max (percent change of maximal ATPase activity) ([1]; 30 μM) | pCa (shift of the pCa giving 50% of the maximal control ATPase activity; Ca++ sensitivity) ([1]; 30 μM) | IC50 (canine cardiac PDE, CGI) [nM] | IC50 (canine cardiac PDE, CAM) [nM] | AoBF (anaesthetised dog; 0.1 mg/kg) | AoBP (anaesthetised dog; 0.1 mg/kg) | H.R. (anaesthetised dog; 0.1 mg/kg) | dP/dt Max (anaesthetised dog; 0.1 mg/kg) | AoBF (anaesthetised dog; 0.3 mg/kg) | AoBP (anaesthetised dog; 0.3 mg/kg) [%] | H.R. (anaesthetised dog; 0.3 mg/kg) | dP/dt Max (anaesthetised dog; 0.3 mg/kg) | AoBF (anaesthetised dog; 1.0 mg/kg) | AoBP (anaesthetised dog; 1.0 mg/kg) [%] | H.R. (anaesthetised dog; 1.0 mg/kg) | dP/dt Max (anaesthetised dog; 1.0 mg/kg) | AoBF (anaesthetised dog; 3.0 mg/kg) | AoBP (anaesthetised dog; 3.0 mg/kg) [%] | also measured
CON=C1C(=O)Nc2ccc(C3=NNC(=O)SC3C)cc21 (stereo not shown) [Example 2, 1,3-Dihydro-5-(3,6-dihydro-6-methyl-2-oxo-2H,1,3,4 thiadiazin-5-yl)-3-methoxyimino-2H-indol-2-one] | +5 ± 2% | 0.24 ± 0.01 | +13 ± 4% | 0.60 ± 0.11 | 1300 | 6900 | +8 ± 2% | +4 ± 2% | +13 ± 8% | +31 ± 9% | +16 ± 1% | -9 ± 1 | +26 ± 10% | +54 ± 20% | +33 ± 5% | -20 ± 5 | +55 ± 21% | +128 ± 56% | – | – | –
CC1SC(=O)NN=C1c1ccc2c(c1)C(=Cc1ccccc1O)C(=O)N2 (stereo not shown) [Example 17, 1,3-Dihydro-5-(3,6-dihydro-6-methyl-2-oxo-2H-1,3,4-thiadiazin-5-yl)-3-[(2-hydroxyphenyl)methylene]-2H -indol-2-one] | – | – | -16 ± 3% | +0.60 ± 0.07 | 430 | 23000 | – | – | – | – | +14 ± 2% | -8 ± 2 | +9 ± 3% | +6 ± 2% | +16 ± 1% | -7 ± 1 | +22 ± 5% | +35 ± 8% | +18 ± 4% | -20 ± 7 | H.R. (anaesthetised dog; 3.0 mg/kg): +52 ± 13%; dP/dt Max (anaesthetised dog; 3.0 mg/kg): +81 ± 18%
COC(=S)NN=C1C(=O)Nc2ccc(C3=NNC(=O)SC3C)cc21 (stereo not shown) [Example 3, O-Methyl 2-[2,3-dihydro-5-(3,6-dihydro-6-methyl-2-oxo-2H -1,3,4-thiadiazin-5-yl)-2-oxo-1H-indol-3-ylidene]-hydrazine carbothioate] | – | – | +3 ± 3% | +0.33 ± 0.05 | 270 | > 300000 | -30 ± 12% | -14 ± 7% | +28 ± 6% | +17 ± 6% | -63 ± 8% | -29 ± 6 | +54 ± 11% | +70 ± 5% | -50 ± 12% | -30 ± 1 | +93 ± 7% | +126 ± 9% | – | – | –
CC1SC(=O)NN=C1c1ccc2c(c1)C(=NO)C(=O)N2 (stereo not shown) [Example 1, 1,3-Dihydro-5-(3,6-dihydro-6-methyl-2-oxo-2H-1,3,4-thiadiazin-5-yl)-3-hydroxyimino-2H-indol-2-one] | +5 ± 0% | 0.19 ± 0.09 | +1 ± 2% | 0.25 ± 0.07 | 660 | 7900 | +8% | +4% | +13% | +31% | +16% | -9 | +30% | +54% | +33% | -20 | +55% | 128% | – | – | –

Continued, in another order:

max (percent change of maximal ATPase activity) ([1]; 10 μM) | pCa (shift of the pCa giving 50% of the maximal control ATPase activity; Ca++ sensitivity) ([1]; 10 μM) | max (percent change of maximal ATPase activity) ([1]; 30 μM) | pCa (shift of the pCa giving 50% of the maximal control ATPase activity; Ca++ sensitivity) ([1]; 30 μM) | IC50 (canine cardiac PDE, CGI) [nM] | IC50 (canine cardiac PDE, CAM) [nM] | SMILES | AoBF (anaesthetised dog; 0.1 mg/kg) | AoBP (anaesthetised dog; 0.1 mg/kg) | H.R. (anaesthetised dog; 0.1 mg/kg) | dP/dt Max (anaesthetised dog; 0.1 mg/kg) | AoBF (anaesthetised dog; 0.3 mg/kg) | AoBP (anaesthetised dog; 0.3 mg/kg) [%] | H.R. (anaesthetised dog; 0.3 mg/kg) | dP/dt Max (anaesthetised dog; 0.3 mg/kg) | AoBF (anaesthetised dog; 1.0 mg/kg) | AoBP (anaesthetised dog; 1.0 mg/kg) [%] | H.R. (anaesthetised dog; 1.0 mg/kg) | dP/dt Max (anaesthetised dog; 1.0 mg/kg) | AoBF (anaesthetised dog; 3.0 mg/kg) | AoBP (anaesthetised dog; 3.0 mg/kg) [%] | also measured
– | – | 2 ± 3% | +0.87 ± 0.01 | 1200 | 19000 | CC1SC(=O)NN=C1c1ccc2c(c1)C(Nc1ccccc1)C(=O)N2.Cl (stereo not shown) [Example 8, 1,3-Dihydro-5-(3,6-dihydro-6-methyl-2-oxo-2H-1,3,4-thiadiazin-5-yl)-3-phenylamino-2H-indol-2-one, hydrochloride] | – | – | – | – | – | – | – | – | – | – | – | – | – | – | stability in presence of air [2]: reverts to the starting material in presence of air
– | – | – | – | 130 | > 300000 | CC1SC(=O)NN=C1c1ccc2c(c1)C(=NNc1ccccc1)C(=O)N2 (stereo not shown) [Example 5, 5-(3,6-Dihydro-6-methyl-2-oxo-2H-1,3,4-thiadiazin-5-yl)-1H -indole-2,3-dione 3-phenylhydrazone] | -25 ± 1% | -14 ± 6% | +8 ± 1% | +7 ± 2% | -34 ± 5% | -12 ± 3 | +18 ± 7% | +24 ± 6% | -28 ± 4% | -12 ± 1 | +19 ± 16% | +42 ± 16% | -37 ± 2% | -19 ± 3 | H.R. (anaesthetised dog; 3.0 mg/kg): +58 ± 0%; dP/dt Max (anaesthetised dog; 3.0 mg/kg): +116 ± 31%
